From patent publication US9611223B2, “3-aryl-5-substituted-isoquinolin-1-one compounds and their therapeutic use” (INSTITUTE OF CANCER RESEARCH: ROYAL CANCER HOSPITAL (THE), priority 2013, dated 2017) come the findings set out here.

Where “and” joins values, the source holds several entries; their conditions need not be identical. Identical values can stand only once. Like-named read-outs stand apart in the source and are kept apart here.

Assay [1] has as its system COLO320DM cells. As to the kind of experiment: Tumour Cell Inhibition Assay (COLO320DM cells). The settings on record: Homo sapiens, COLO 320DM, 120 h, five day exposure. It counts as cell-based. Here is the method: Tumour Cell Inhibition in Colorectal Tumour Cells
In order to determine the efficacy of acute dosing of putative TNKS inhibitors, five day exposure cell viability assays were carried out. This included the sparse seeding of cells in a 96-well plate followed by continuous dosing of cells over a five day period.
Appropriate cell lines (HT55, COLO320DM and SW620) were seeded at 500 cells/well in a 96-well plate in MEM (HT55), RPMI (COLO320DM) or DMEM (SW620) supplemented with FBS. After overnight incubation, cells were treated with the appropriate putative TNKS inhibitor in 6 or 10 concentrations ranging from 0 μM to 10 μM at 0.2% final DMSO concentration in appropriate media supplemented with 10% or 0.5% FBS. Dosages were carried out in triplicate. Termination of the assay and measurement of cell viability was achieved by the use of Cell Titre Glo reagent and luminescence measurement on an appropriate plate reader.
Dose response curves used to determine SF50 values were Log transformed and analysed by non-linear regression analysis (variable slope) using Prism (GraphPad Software, Inc).

The target of assay [2] is T1, TNKS1 (Homo sapiens, UniProt O95271, M1266I).
T1 construct: expresses the active PARP domain of TNKS1 as a polyhistidine tagged protein; made in house; host or cells: E. coli Rosetta2(DE3)
The assay is described as follows: TNKS1/PARP Biochemical Assay. The protocol:
TNKS1/PARP Biochemical Assay
Tankyrase activity was assayed using a 96-well format HT Universal Chemiluminescent PARP Assay Kit (Trevigen, Inc, cat. no. 4676-096-K) according to the manufacturer's instructions. In short, tankyrase/PARP activity is quantified by the incorporation of biotinylated nicotinamide adenine dinucleotide (biotin-NAD^+) onto the immobilised pseudo substrate, Histone. The extent of poly(Biotin-ADP)ribosylation (PARylation) in the presence of increasing dose of inhibitor is then quantified by binding of streptavidin conjugated horse radish peroxidase (strep-HRP) followed by chemiluminescent detection.
Prior to assay initiation, inhibitor stocks were prepared in aqueous DMSO (10% (v/v)) from 5 millimolar (mM) stock in 100% DMSO (Sigma Aldrich, cat. no. 265855) as 10× concentrations. For the primary assay (i.e., single dose at 1 micromolar (μM) final concentration) this corresponded to 10 μM in 10% DMSO. For IC50 determination, this corresponded to 100 μM, 30 μM, 10 μM, 3.0 μM, 1.0 μM, 0.30 μM, 0.10 μM and 0 μM in 10% DMSO for final concentrations of 10 μM, 3.0 μM, 1.0 μM, 0.30 μM, 0.10 μM, 0.030 μM, 0.010 μM, and 0 μM with 1% (v/v) final DMSO. The assay was initiated by the addition of 10× inhibitor (5 microliters (μL)) or 10% aqueous DMSO (5 μL) to triplicate wells. Twenty microliters of diluted TNKS1 protein (200 nanomolar (nM) final conc.) in PARP buffer (Trevigen, Inc, cat. no. 4671-096-02) was added to each histone coated well, which was previously hydrated with PARP buffer. Triplicate wells with 1% DMSO/buffer alone (no enzyme) were also added as a measure of assay ‘noise’. Positive control for PARP inhibition included the addition of 4-amino-1,8-naphthalimide (Sigma Aldrich, cat. no A0966) in corresponding doses.
The mixture was incubated for 10 minutes at room temperature and the PARylation reaction initiated by the addition of PARP cocktail (25 μL, Trevigen, Inc) containing biotin-NAD^+ (Trevigen, Inc, cat. no. 4670-500-01), activated DNA (Trevigen, Inc, cat. no. 4671-096-06) and PARP buffer. The reaction was incubated for 1.5 hours (for TNKS1) or 1 hour (for PARP1) at room temperature. The reaction mixture was then removed by aspiration and the wells washed (3×200 μL) with phosphate buffered saline containing Triton X-100 (0.1% (v/v), Sigma Aldrich cat. no. T8787). The wells were then washed (3×200 μL) with phosphate buffered saline and then incubated with strep-HRP (50 μL, Trevigen, Inc, cat. no. 4800-30-06) in strep-diluent (1:500 dilution, Trevigen Inc, cat. no. 4671-096-04) for 1 hour at room temperature. The Strep-HRP mixture was then aspirated and the wells washed (3×200 μL) with phosphate buffered saline containing Triton X-100 (0.1% (v/v)) followed by phosphate buffered saline (3×200 μL) and then incubated with PeroxyGlow™ reagent (100 μL, Trevigen, Inc, cat. nos. 4675-096-01, 4675-096-02, room temperature, mixed 1:1).
The amount of light emitted as a result of the peroxidase-chemiluminescent reagent reaction was in proportion to the extent of poly(Biotin-ADP)ribosylation and was immediately measured with a Victor^2 plate reader (Perkin Elmer, luminescence detection assay, luminescent units described as ‘Counts Per Second’ (CPS)). The data were normalised to the DMSO control after subtraction of ‘noise’ and was expressed as % PARP activity as a function of inhibitor dose. Inhibition was expressed as 100%−(% PARP activity). Dose response curves used to determine IC50 values were Log transformed and analysed by non-linear regression analysis (variable slope) using Prism (GraphPad Software, Inc) and were presented as IC50 with 95% confidence interval to determine relative potency.
Tankyrase1 (pNIC-Bsa4-TNKS1^PARP) expression construct was obtained from the Structural Genomics Consortium (SGC) and expresses the active PARP domain of TNKS1 as a polyhistidine tagged protein. […]

Setting [3] is: read-out: cell inhibitory SF50 (COLO320DM).

T1 sequence (O95271 1112-1317 M1266I): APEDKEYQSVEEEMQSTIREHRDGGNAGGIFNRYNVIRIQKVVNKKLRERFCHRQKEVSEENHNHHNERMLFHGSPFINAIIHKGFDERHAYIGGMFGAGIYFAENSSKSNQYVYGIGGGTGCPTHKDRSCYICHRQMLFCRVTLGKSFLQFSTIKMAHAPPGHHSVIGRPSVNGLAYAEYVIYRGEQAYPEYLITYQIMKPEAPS

For `CN(C(=O)c1ccc(-c2cc3c(C#N)cccc3c(=O)[nH]2)cc1)C1CCN(CC2CC2)CC1` [IQ-006], the IC50 in assay [1] (setting [3]) is less than 5 µM; in assay [2], less than 50 nM. `COCCN(CCOC)C(=O)c1ccc(-c2cc3c(C#N)cccc3c(=O)[nH]2)cc1` [IQ-008] returned an IC50 in assay [2] of less than 100 nM.

In assay [2], `CC(c1ccc(-c2cc3c(C#N)cccc3c(=O)[nH]2)cc1)N1CC(O)C1` (centres unmarked) [IQ-009, 3-{4-[1-(3-Hydroxy-azetidin-1-yl)-ethyl]-phenyl}-1-oxo-1,2-dihydro-isoquinoline-5-carbonitrile] yielded an IC50 of less than 50 nM. In the case of `N#Cc1cccc2c(=O)[nH]c(-c3ccc(C(=O)N(CCO)CCO)cc3)cc12` [IQ-010, 4-(5-Cyano-1-oxo-1,2-dihydro-isoquinolin-3-yl)-N,N-bis-(2-hydroxy-ethyl)-benzamide], the IC50 in assay [2] was less than 50 nM. As for `Cc1nccn1Cc1ccc(-c2cc3c(C#N)cccc3c(=O)[nH]2)cc1` [IQ-013], the IC50 in assay [1] (replicate, read-out: cell inhibitory SF50 (COLO320DM), replicate) is 1.12 µM; in assay [2], < 100 nM and < 50 nM and 18 nM. Turning to `CN(C)Cc1nccn1Cc1ccc(-c2cc3c(C#N)cccc3c(=O)[nH]2)cc1` [IQ-016], the values for the IC50 in assay [1] (setting [3]) and in assay [2] were less than 5 µM and less than 50 nM, respectively.

Take `COCc1nccn1Cc1ccc(-c2cc3c(C#N)cccc3c(=O)[nH]2)cc1` [IQ-017]: the IC50 in assay [2] is less than 50 nM. On the same count and under the same terms, the result for `CC(C)c1nnc(N2CCN(Cc3ccc(-c4cc5c(C#N)cccc5c(=O)[nH]4)cc3)CC2)o1` [IQ-019] reads less than 50 nM.

Regarding `Cc1nnc(N2CCN(Cc3ccc(-c4cc5c(C#N)cccc5c(=O)[nH]4)cc3)CC2)o1` [IQ-020], the results for the IC50 in assay [1] (setting [3]) and in assay [2] were less than 5 µM and less than 50 nM, respectively. Compound `Cc1nnc(N2CCN(Cc3ccc(-c4cc5c(CN)cccc5c(=O)[nH]4)cc3)CC2)o1` [IQ-022] returned an IC50 in assay [2] of less than 50 nM. With `COCc1nccn1Cc1ccc(-c2cc3c(CN)cccc3c(=O)[nH]2)cc1` [IQ-023, 5-Aminomethyl-3-[4-(2-methoxymethyl-imidazol-1-ylmethyl)-phenyl]-2H-isoquinolin-1-one], the IC50 in assay [2] was less than 50 nM.

As for `CN(C)Cc1cccc2c(=O)[nH]c(-c3ccc(CN4CCN(C)CC4)cc3)cc12` [IQ-024, 5-Dimethylaminomethyl-3-[4-(4-methyl-piperazin-1-ylmethyl)-phenyl]-2H-isoquinolin-1-one], the IC50 in assay [1] (setting [3]) is less than 5 µM.

For `COCc1nccn1C(C)c1ccc(-c2cc3c(C#N)cccc3c(=O)[nH]2)cc1` (centres unmarked) [IQ-028], the IC50 in assay [1] (setting [3]) was less than 5 µM; in assay [2], less than 50 nM. As for `CC(c1ccc(-c2cc3c(C#N)cccc3c(=O)[nH]2)cc1)n1ccnc1` (centres unmarked) [IQ-029], in assay [2], the IC50 was less than 50 nM. Regarding `N#Cc1cccc2c(=O)[nH]c(-c3ccc(Cn4ccnn4)cc3)cc12` [IQ-030], the results for the IC50 in assay [1] (setting [3]) and in assay [2] were less than 5 µM and less than 50 nM, respectively. Turning to `COCc1ccnn1Cc1ccc(-c2cc3c(C#N)cccc3c(=O)[nH]2)cc1` [IQ-031], in assay [2], the IC50 was less than 100 nM. Still for that read-out and setting: the result for `Cc1nnc(N2CCN(C(C)c3ccc(-c4cc5c(C#N)cccc5c(=O)[nH]4)cc3)CC2)o1` (centres unmarked) [IQ-032] reads less than 50 nM. Turning to `COCc1ccn(Cc2ccc(-c3cc4c(C#N)cccc4c(=O)[nH]3)cc2)n1` [IQ-033], the IC50 in assay [1] (setting [3]) was less than 5 µM; in assay [2], less than 50 nM. On to `CC(c1ccc(-c2cc3c(C#N)cccc3c(=O)[nH]2)cn1)n1ccnc1` (centres unmarked) [IQ-034], for which the IC50 in assay [2] was less than 50 nM.

As for `CC(c1ccc(-c2cc3c(C#N)cccc3c(=O)[nH]2)cc1)n1ccnc1CO` (centres unmarked) [IQ-038], the results for the IC50 in assay [1] (setting [3]) and in assay [2] were less than 5 µM and less than 50 nM, respectively. Consider `Cc1nnc(N2CCN(Cc3ccc(-c4cc5c(C#N)cc(F)cc5c(=O)[nH]4)cc3)CC2)o1` [IQ-039], for which the IC50 in assay [1] (setting [3]) is less than 5 µM; in assay [2], less than 50 nM. On the same counts, the results for `Cc1nnc(N2CCN(Cc3ccc(-c4cc5c(C#N)cccc5c(=O)[nH]4)cc3)C(C)C2)o1` (centres unmarked) [IQ-040] are less than 5 µM and less than 100 nM.

In the case of `Cc1nnc(N(C)Cc2ccc(-c3cc4c(C#N)cccc4c(=O)[nH]3)cc2)o1` [IQ-042], the IC50 in assay [1] (setting [3]) was less than 5 µM; in assay [2] it was less than 50 nM.

Take `N#Cc1cccc2c(=O)[nH]c(-c3ccc(CN)cc3)cc12` [IQ-043]: the IC50 in assay [2] is less than 100 nM. On to `CCc1nnc(N2CCN(Cc3ccc(-c4cc5c(C#N)cccc5c(=O)[nH]4)cc3)CC2)o1` [IQ-044], for which the IC50 in assay [2] was less than 50 nM.

On to `CC(C)(C)OC(=O)N1CCN(Cc2ccc(-c3cc4c(C#N)cccc4c(=O)[nH]3)cc2)CC1` [IQ-046], for which the IC50 in assay [1] (setting [3]) is less than 5 µM.

With `Cc1nnc(N(C)C2CN(Cc3ccc(-c4cc5c(C#N)cccc5c(=O)[nH]4)cc3)C2)o1` [IQ-047], the IC50 was less than 5 µM in assay [1] (setting [3]) and less than 50 nM in assay [2].

`Cc1nnc(N2CCCN(Cc3ccc(-c4cc5c(C#N)cccc5c(=O)[nH]4)cc3)CC2)o1` [IQ-049]: the IC50 was less than 5 µM in assay [1] (setting [3]) and less than 50 nM in assay [2]. As to `CC(C)(C)OC(=O)N1CCN(c2ccc(-c3cc4c(C#N)cccc4c(=O)[nH]3)cn2)CC1` [IQ-051], in assay [1] (setting [3]), the IC50 is less than 5 µM. Take `Cc1nnc(N2CCN(c3ccc(-c4cc5c(C#N)cccc5c(=O)[nH]4)cc3)CC2)o1` [IQ-055, 3-{4-[4-(5-Methyl-[1,3,4]oxadiazol-2-yl)piperazin-1-yl]phenyl}-1-oxo-1,2-dihydroisoquinoline-5-carbonitrile]: in assay [2], the IC50 was less than 50 nM. Turning to `Cc1nnc(N2CCN(Cc3ccc(-c4cc5c(C#N)cccc5c(=O)[nH]4)cc3)CC2C)o1` (centres unmarked) [IQ-056], the IC50 in assay [1] (setting [3]) is less than 5 µM; in assay [2], less than 50 nM.

For `Cc1nnc(N2CCN(Cc3ccc(-c4cc5c(C#N)cccc5c(=O)[nH]4)cc3)C(C)(C)C2)o1` [IQ-057], the results for the IC50 in assay [1] (setting [3]) and in assay [2] were less than 5 µM and less than 50 nM, respectively. `Cc1nnc(N2CCN(Cc3ccc(-c4cc5c(C#N)cccc5c(=O)[nH]4)cc3)CC2(C)C)o1` [IQ-058]: in assay [2], the IC50 is less than 100 nM.

Consider `Cc1nnc(N2CCCN(c3ccc(-c4cc5c(C#N)cccc5c(=O)[nH]4)cc3)CC2)o1` [IQ-059, 3-{4-[4-(5-Methyl-[1,3,4]oxadiazol-2-yl)-[1,4]diazepan-1-yl]-phenyl}-1-oxo-1,2-dihydro-isoquinoline-5-carbonitrile], for which the results for the IC50 in assay [1] (setting [3]) and in assay [2] were less than 5 µM and less than 50 nM, respectively.
